# Counter-ions that a name gives are not always drawn. ± gives the standard deviation of the averaged measurements.
# Columns and labels:
# [1] = tested on: A549-ACE2 infected with SARS-CoV-2; assay: cell count relative to DMSO; higher = less toxic; settings: 24 h
# Caco-2 [2] = assay: cell viability relative to DMSO; higher = less toxic; settings: 72 h
# Calu-3 [3] = assay: as above; settings: 72 h
# HepG2 [4] = assay: as above; settings: 72 h
# U2OS [5] = assay: as above; settings: 72 h
# Vero E6 [6] = assay: as above; settings: 72 h
# [7] = tested on: A549-ACE2 infected with SARS-CoV-2; assay: SARS-CoV-2 infection rate relative to DMSO; higher = more infection; settings: 24 h
# A549-ACE2 = assay: drug-induced phospholipidosis relative to tamoxifen; higher = more phospholipidosis
# [8] = tested on: A549-ACE2 infected with SARS-CoV-2; assay: morphology score (similarity to uninfected cells); higher = more like uninfected cells; settings: 24 h
# Caco-2 [9] = assay: relative viability EC50 (midpoint between 100% and the lowest measured viability); higher = less toxic; settings: 72 h
# Calu-3 [10] = assay: as above; settings: 72 h
# U2OS [11] = assay: as above; settings: 72 h
# Vero E6 [12] = assay: as above; settings: 72 h
# Caco-2 [13] = assay: drug sensitivity score (DSS) for viability; higher = more toxic; extreme values may be limits of the assay; settings: 72 h
# Calu-3 [14] = assay: as above; settings: 72 h
# HepG2 [15] = assay: as above; settings: 72 h
# U2OS [16] = assay: as above; settings: 72 h
# Vero E6 [17] = assay: as above; settings: 72 h
# HepG2 [18] = assay: relative viability EC50 (midpoint between 100% and the lowest measured viability); higher = less toxic; settings: 72 h
compound,measurement,setting,value
CC(=O)c1cc([N+](=O)[O-])c(Sc2ccc(F)cc2F)s1,cell count,[1]; 0.3 µM,99%
same,cell count,[1]; 3 µM,100%
same,cell count,[1]; 10 µM,81%
same,cell count,[1]; 30 µM,58%
same,cell viability,Caco-2 [2]; 1 nM,98%
same,cell viability,Caco-2 [2]; 10 nM,96.6%
same,cell viability,Caco-2 [2]; 100 nM,103%
same,cell viability,Caco-2 [2]; 1000 nM,87.4%
same,cell viability,Caco-2 [2]; 10000 nM,31.8%
same,cell viability,Calu-3 [3]; 1 nM,91%
same,cell viability,Calu-3 [3]; 10 nM,95.3%
same,cell viability,Calu-3 [3]; 100 nM,105%
same,cell viability,Calu-3 [3]; 1000 nM,98.6%
same,cell viability,Calu-3 [3]; 10000 nM,101%
same,cell viability,HepG2 [4]; 1 nM,110%
same,cell viability,HepG2 [4]; 10 nM,105%
same,cell viability,HepG2 [4]; 100 nM,106%
same,cell viability,HepG2 [4]; 1000 nM,100%
same,cell viability,HepG2 [4]; 10000 nM,58.5%
same,cell viability,U2OS [5]; 1 nM,95.3%
same,cell viability,U2OS [5]; 10 nM,99.3%
same,cell viability,U2OS [5]; 100 nM,95.2%
same,cell viability,U2OS [5]; 1000 nM,101%
same,cell viability,U2OS [5]; 10000 nM,80%
same,cell viability,Vero E6 [6]; 1 nM,108%
same,cell viability,Vero E6 [6]; 10 nM,98.8%
same,cell viability,Vero E6 [6]; 100 nM,101%
same,cell viability,Vero E6 [6]; 1000 nM,98.1%
same,cell viability,Vero E6 [6]; 10000 nM,95.6%
same,SARS-CoV-2 infection rate,[7]; 0.3 µM,98%
same,SARS-CoV-2 infection rate,[7]; 3 µM,106%
same,SARS-CoV-2 infection rate,[7]; 10 µM,71%
same,SARS-CoV-2 infection rate,[7]; 30 µM,55%
same,drug-induced phospholipidosis,"A549-ACE2; 0.3 µM, 24 h",3.19%
same,drug-induced phospholipidosis,"A549-ACE2; 0.3 µM, 48 h",2.73%
same,drug-induced phospholipidosis,"A549-ACE2; 0.3 µM, 72 h",0.714%
same,drug-induced phospholipidosis,"A549-ACE2; 0.833333 µM, 24 h",-2.16%
same,drug-induced phospholipidosis,"A549-ACE2; 0.833333 µM, 48 h",-1.61%
same,drug-induced phospholipidosis,"A549-ACE2; 0.833333 µM, 72 h",-1.68%
same,drug-induced phospholipidosis,"A549-ACE2; 3.33333 µM, 24 h",10.1%
same,drug-induced phospholipidosis,"A549-ACE2; 3.33333 µM, 48 h",2.36%
same,drug-induced phospholipidosis,"A549-ACE2; 3.33333 µM, 72 h",-2.13%
same,drug-induced phospholipidosis,"A549-ACE2; 6.66667 µM, 24 h",11.8%
same,drug-induced phospholipidosis,"A549-ACE2; 6.66667 µM, 48 h",16.5%
same,drug-induced phospholipidosis,"A549-ACE2; 6.66667 µM, 72 h",11.8%
same,drug-induced phospholipidosis,"A549-ACE2; 30 µM, 24 h",19.3%
same,drug-induced phospholipidosis,"A549-ACE2; 30 µM, 72 h",23.5%
same,morphology score,[8]; 0.3 µM,0.06
same,morphology score,[8]; 3 µM,-0.18
same,morphology score,[8]; 10 µM,0.38
same,morphology score,[8]; 30 µM,0.17
same,relative viability EC50,Caco-2 [9],1.81 µM
same,relative viability EC50,Calu-3 [10],> 10 µM
same,relative viability EC50,U2OS [11],> 10 µM
same,relative viability EC50,Vero E6 [12],> 10 µM
same,drug sensitivity score,Caco-2 [13],5.8
same,drug sensitivity score,Calu-3 [14],0
same,drug sensitivity score,HepG2 [15],2.1
same,drug sensitivity score,U2OS [16],0.5
same,drug sensitivity score,Vero E6 [17],0
C[C@H](N)Cc1c[nH]cn1 [alpha-methylhistamine-dihydrobromide-(S)-(+)],cell count,[1]; 0.3 µM,109%
same,cell count,[1]; 3 µM,104%
same,cell count,[1]; 10 µM,104%
same,cell count,[1]; 30 µM,98%
same,cell viability,Caco-2 [2]; 1 nM,93.5 ± 9.1%
same,cell viability,Caco-2 [2]; 10 nM,87.9 ± 3%
same,cell viability,Caco-2 [2]; 100 nM,95.2 ± 2.3%
same,cell viability,Caco-2 [2]; 1000 nM,98.5 ± 7.1%
same,cell viability,Caco-2 [2]; 10000 nM,96.6 ± 0.28%
same,cell viability,Calu-3 [3]; 1 nM,100 ± 1.1%
same,cell viability,Calu-3 [3]; 10 nM,105 ± 4%
same,cell viability,Calu-3 [3]; 100 nM,98.2 ± 1.8%
same,cell viability,Calu-3 [3]; 1000 nM,100 ± 4.2%
same,cell viability,Calu-3 [3]; 10000 nM,101 ± 2.8%
same,cell viability,HepG2 [4]; 1 nM,96.1 ± 6.5%
same,cell viability,HepG2 [4]; 10 nM,103 ± 1.3%
same,cell viability,HepG2 [4]; 100 nM,93 ± 1.9%
same,cell viability,HepG2 [4]; 1000 nM,100.2 ± 0.28%
same,cell viability,HepG2 [4]; 10000 nM,94.8 ± 0.71%
same,cell viability,U2OS [5]; 1 nM,98.9%
same,cell viability,U2OS [5]; 10 nM,96.9%
same,cell viability,U2OS [5]; 100 nM,101%
same,cell viability,U2OS [5]; 1000 nM,101%
same,cell viability,U2OS [5]; 10000 nM,99.2%
same,cell viability,Vero E6 [6]; 1 nM,94.7%
same,cell viability,Vero E6 [6]; 10 nM,96.5%
same,cell viability,Vero E6 [6]; 100 nM,92.7%
same,cell viability,Vero E6 [6]; 1000 nM,96.5%
same,cell viability,Vero E6 [6]; 10000 nM,105%
same,SARS-CoV-2 infection rate,[7]; 0.3 µM,96%
same,SARS-CoV-2 infection rate,[7]; 3 µM,101%
same,SARS-CoV-2 infection rate,[7]; 10 µM,90%
same,SARS-CoV-2 infection rate,[7]; 30 µM,104%
same,drug-induced phospholipidosis,"A549-ACE2; 0.3 µM, 24 h",1.4%
same,drug-induced phospholipidosis,"A549-ACE2; 0.3 µM, 48 h",2.76%
same,drug-induced phospholipidosis,"A549-ACE2; 0.3 µM, 72 h",2.88%
same,drug-induced phospholipidosis,"A549-ACE2; 0.833333 µM, 24 h",-2.09%
same,drug-induced phospholipidosis,"A549-ACE2; 0.833333 µM, 48 h",-1.54%
same,drug-induced phospholipidosis,"A549-ACE2; 0.833333 µM, 72 h",-1.77%
same,drug-induced phospholipidosis,"A549-ACE2; 3.33333 µM, 24 h",-0.4%
same,drug-induced phospholipidosis,"A549-ACE2; 3.33333 µM, 48 h",-1.15%
same,drug-induced phospholipidosis,"A549-ACE2; 3.33333 µM, 72 h",-1.17%
same,drug-induced phospholipidosis,"A549-ACE2; 6.66667 µM, 24 h",-0.13%
same,drug-induced phospholipidosis,"A549-ACE2; 6.66667 µM, 48 h",-0.6%
same,drug-induced phospholipidosis,"A549-ACE2; 6.66667 µM, 72 h",-0.807%
same,drug-induced phospholipidosis,"A549-ACE2; 10 µM, 24 h",-1.06%
same,drug-induced phospholipidosis,"A549-ACE2; 10 µM, 48 h",0.05%
same,drug-induced phospholipidosis,"A549-ACE2; 10 µM, 72 h",0.33%
same,drug-induced phospholipidosis,"A549-ACE2; 30 µM, 24 h",2.88%
same,drug-induced phospholipidosis,"A549-ACE2; 30 µM, 48 h",3.3%
same,drug-induced phospholipidosis,"A549-ACE2; 30 µM, 72 h",4.01%
same,morphology score,[8]; 0.3 µM,0.22
same,morphology score,[8]; 3 µM,0.16
same,morphology score,[8]; 10 µM,0.28
same,morphology score,[8]; 30 µM,-0.09
same,relative viability EC50,Caco-2 [9],> 10 µM
same,relative viability EC50,Calu-3 [10],> 10 µM
same,relative viability EC50,HepG2 [18],> 10 µM
same,relative viability EC50,U2OS [11],> 10 µM
same,relative viability EC50,Vero E6 [12],> 10 µM
same,drug sensitivity score,Caco-2 [13],0
same,drug sensitivity score,Calu-3 [14],0
same,drug sensitivity score,HepG2 [15],0
same,drug sensitivity score,U2OS [16],0
same,drug sensitivity score,Vero E6 [17],0

# From the supplement of paper PMC13380429
